{"source": "patent US20080051413A1", "about": "“Nitrophenylpiperazine derivative of xanthine which relaxes tracheal airway and increases respiratory performance” (KAOHSIUNG MEDICAL UNIVERSITY, priority 2006, published 2008)", "key": {"respiratory performance": {"system": "respiratory performance", "experiment": "Pulmonary function after i.v. injection (RL, Cdyn, tidal volume)", "type": "in vivo", "settings": "1 mg/kg i.v., guinea pig, n = 3", "method": "Animals: Male Dunkin Harley guinea pigs (350-450 g) were provide by the National Laboratory Animal Breeding and Research Center (Taipei, Taiwan) and housed under conditions of constant temperature and controlled illumination. Food and water were available and libitum. The study was approved by the Animal Care and Use Committee of the Kaohsiung Medical University.\nPulmonary Function: Guinea pegs (350-450 g) were anesthetized with pentobarbital (40 mg/kg i.p.) and maintained with further i.v. doses of 2 to 5 mg/kg when required according to methods previously described (Wu B N, Lin R J, Lo Y C, Shen K P, Wang C C, Lin Y T, and Chen I J (2004) KMUP-1, a xanthine derivative, induces relaxation of guinea-pig isolated trachea: the role of the epithelium, cyclic nucleotides and K^+ channels, Br J Pharmacol 142:1105-1114). The animal was tethered in a supine position, and the trachea was cannulated below the larynx with a short tracheal cannula via a tracheotomy. Tracheal pressure was measured by a catheter connected to the side arm of the tracheal cannula. The carotid artery and jugular vein were cannulated to monitor blood pressure and heart rate and for drug administration, respectively. Throughout the experiment, the body temperature of the guinea pig was maintained at 37_. Measurements of pulmonary cardiac function were carried out as previously described (Hsu T H, Lai Y L, and Kou Y R (1998) Acetylcholine and tachykinin receptor antagonists attenuate wood smoke-induced bronchoconstriction in Guinea pigs. Eur J Pharmacol 360:175-183). Total lung resistance (RL) and dynamic lung compliance (Cdyn) were measured on a breath-by-breath basis using a computer equipped with an A/D interface (DAS 1600; Buxco Electronics, Inc., Wilmington, N.C.) and software (version 1.5.7; Buxco Electronics, Inc.). Results obtained from the computer analysis were checked for accuracy by comparison with those calculated manually.\nAnimals were allowed to stabilize for 10 min following surgical manipulations before the test agent was administered. Intratracheal instillation was performed using a catheter placed through the tracheal tube into the bronchial system. The catheter connected to a 1-ml syringe was inserted into the trachea cannula extending 1 cm beyond the tip of the cannula for instillation of drug or vehicle. The instillation was followed by rapid intratracheal injection of 0.5 ml of air to facilitate deposition of drug or vehicle into the lungs as in the modified methods of Chung et al. (2001)(Chung W H, Bennett B M, Racz W J, Brien J F, and […] Fischer 344 rats during aminodarone-induced pulmonary fibrosis. Am J Physiol 281:L1180-L1188). The animals were pretreated intratracheally with KMUP-3 (0.5, 1.0, and 2.0 mg/kg/150 _l of saline) or an equivalent volume (150 _l) of vehicle 15 min before TNF-_(0.01 mg/kg/300 _l saline) was instilled to induce acute bronchoconstriction. In another experiments, KMUP-3 or KMUP-1 (1.0 mg/kg i.v.) were used to compare the effects on respiratory performance, indicated by changes of tidal volume, total RL, and Cdyn."}, "[1]": {"biological_target": "T1, PDE5 purified from human platelets (Homo sapiens, UniProt O76074)", "T1 construct": "PDE3 and PDE5 purified from human platelets; from tissue; host or cells: human platelets", "experiment": "Phosphodiesterase activity, PDE5", "type": "biochemical", "settings": "10 _M compound, n = 3", "quoted_text": "The reaction was terminated by boiling for 2 min, and the resulting GMP was converted to adenosine by the addition of 10 mg/ml snake venom nucleotidase, which was followed by a further incubation at 37_ for 10 min. Unhydrolyzed cGMP was bound to AG1-X2 resin, and the remaining [^3H]guanosine in the aqueous phase was quantitated by scintillation counting."}, "[2]": {"system": "PDE4 purified from human U-937 pronocytic cells", "experiment": "Phosphodiesterase activity, PDE4", "type": "biochemical", "settings": "10 _M compound, n = 3", "method": "Phosphodiesterase Activity: PDE activity was determined by the method of Nicholson et al. (Nicholson C D, Challiss R A, and Shahid M (1991) Differential modulation of tissue function and therapeutic potential of selective inhibitors of cyclic nucleotide phosphodiesterase isonzymes. Trends Pharmaclo Sci 12:19-27). PDE3 and PDE5 purified from human platelets and PDE4 purified from human U-937 pronocytic cells were used. Test compound (10 _M) or vehicle was incubated with 0.2 _g of enzyme and 1 _M cAMP containing 0.01 _M [^3H]cAMP in Tris buffer, pH 7.5, for 20 min at 25_. The reaction was terminated by boiling for 2 min, and the resulting […] was converted to adenosine by the addition of 10 mg/ml snake venom nucleotidase, which is followed by a further incubation at 37_for 10 min. Unhydrolyzed cAMP was bound to AG1-X2 resin, and the remaining [^3H]adenosine in the aqueous phase was quantitated by scintillation counting."}, "[3]": {"biological_target": "T2, PDE3 purified from human platelets (Homo sapiens, UniProt Q14432)", "T2 construct": "PDE3 and PDE5 purified from human platelets; from tissue; host or cells: human platelets", "T2 sequence (Q14432 whole entry)": "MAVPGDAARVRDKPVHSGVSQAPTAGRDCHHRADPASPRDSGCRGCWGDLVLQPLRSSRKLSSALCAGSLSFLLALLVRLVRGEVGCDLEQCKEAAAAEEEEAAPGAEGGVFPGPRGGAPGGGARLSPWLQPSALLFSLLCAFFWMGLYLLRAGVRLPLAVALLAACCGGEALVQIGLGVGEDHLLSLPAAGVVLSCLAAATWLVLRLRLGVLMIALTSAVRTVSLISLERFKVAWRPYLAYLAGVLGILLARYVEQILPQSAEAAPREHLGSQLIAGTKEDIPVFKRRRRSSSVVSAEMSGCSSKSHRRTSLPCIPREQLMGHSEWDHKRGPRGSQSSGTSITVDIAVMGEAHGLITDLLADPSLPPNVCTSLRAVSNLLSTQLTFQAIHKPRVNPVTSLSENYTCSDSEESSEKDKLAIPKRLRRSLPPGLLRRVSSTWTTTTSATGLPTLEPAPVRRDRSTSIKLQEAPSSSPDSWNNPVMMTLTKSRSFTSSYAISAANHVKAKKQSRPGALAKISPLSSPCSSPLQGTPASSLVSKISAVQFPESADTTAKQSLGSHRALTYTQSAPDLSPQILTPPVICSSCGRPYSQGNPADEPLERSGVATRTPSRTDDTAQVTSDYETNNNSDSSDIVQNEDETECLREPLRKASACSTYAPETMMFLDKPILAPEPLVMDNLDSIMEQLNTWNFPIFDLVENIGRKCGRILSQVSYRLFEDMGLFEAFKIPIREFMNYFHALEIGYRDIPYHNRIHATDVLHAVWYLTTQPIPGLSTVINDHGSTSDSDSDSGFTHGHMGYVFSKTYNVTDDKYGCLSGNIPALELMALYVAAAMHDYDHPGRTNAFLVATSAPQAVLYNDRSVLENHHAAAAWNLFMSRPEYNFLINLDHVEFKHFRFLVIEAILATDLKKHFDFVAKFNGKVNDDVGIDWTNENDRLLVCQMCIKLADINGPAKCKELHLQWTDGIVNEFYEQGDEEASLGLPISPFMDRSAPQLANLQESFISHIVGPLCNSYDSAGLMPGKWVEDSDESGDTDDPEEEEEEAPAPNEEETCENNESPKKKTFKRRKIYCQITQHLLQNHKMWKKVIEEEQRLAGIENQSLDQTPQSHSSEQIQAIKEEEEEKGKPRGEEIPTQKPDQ", "experiment": "Phosphodiesterase activity, PDE3", "type": "biochemical", "settings": "10 _M compound, n = 3", "quoted_text": "PDE3 and PDE5 purified from human platelets and PDE4 purified from human U-937 pronocytic cells were used. Test compound (10 _M) or vehicle was incubated with 0.2 _g of enzyme and 1 _M cAMP containing 0.01 _M [^3H]cAMP in Tris buffer, pH 7.5, for 20 min at 25_. The reaction was terminated by boiling for 2 min, and the resulting cAMP was converted to adenosine by the addition of 10 mg/ml snake venom nucleotidase, which is followed by a further incubation at 37_for 10 min. Unhydrolyzed cAMP was bound to AG1-X2 resin, and the remaining [^3H]adenosine in the aqueous phase was quantitated by scintillation counting."}}, "data": [{"compound": "Cn1c(=O)c2c(ncn2CCN2CCN(c3ccccc3Cl)CC2)n(C)c1=O", "note": "[KMUP-1, reference compound]", "values": [{"measurement": "Cdyn, Maximum change of baseline (%)", "setting": "respiratory performance", "result": "35 ± 4.5", "unit": "%"}, {"measurement": "RL, Maximum change of baseline (%)", "setting": "respiratory performance", "result": "−20 ± 3.5", "unit": "%"}, {"measurement": "Tidal Volume, Maximum change of baseline (%)", "setting": "respiratory performance", "result": "2.8 ± 0.2", "unit": "%"}, {"measurement": "PDE5 Inhibition", "setting": "[1]", "result": "29 ± 2.5", "unit": "%"}, {"measurement": "PDE4 Inhibition", "setting": "[2]", "result": "18 ± 2.3", "unit": "%"}, {"measurement": "PDE3 inhibition", "setting": "[3]", "result": "23 ± 2.2", "unit": "%"}]}]}
